Test results from patent EP2818472A1, “Imidazo[4,5-c]pyridine and pyrrolo[3,2-c]pyridine compounds as G-protein-coupled receptor kinase 5 (GRK5) modulators” (Max-Planck-Gesellschaft zur Förderung der Wissenschaften …, priority 2013, dated 2014).

tested on: beta-TC6 cells; assay: Insulin HTRF assay (relative activity Ar) in beta-TC6 cells; format: cell-based, mouse; conditions: Mus musculus, Beta-TC6, 4 h, insulin HTRF, supernatant of beta-TC6 cells, incubation with test compound at 37°C for 2, 3, 4h; read-out: Ar (relative activity)
Procedure, shortened: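 beta-TC6 cells (15k/well, seeded 24 or 48 h) washed, then exposed to compound in induction buffer (0.5% DMSO final) for 2, 3 or 4 h at 37°C.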

`CNc1nc2cnc(Nc3ccc(NC(C)=O)cc3)cc2n1Cc1ccccc1` [Compound 527, N-[4-[[1-benzyl-2-(methylamino)imidazo[4,5-c]pyridin-6-yl]amino]phenyl]acetamide] and `CNc1nc2cnc(Nc3cccc(NC(C)=O)c3)cc2n1Cc1ccccc1` [Compound 538, N-[3-[[1-benzyl-2-(methylamino)imidazo[4,5-c]pyridin-6-yl]amino]phenyl]acetamide] fall in the same range of Emax: 50 to 100% for the first, 50 to 100% for the second.

`CNc1nc2cnc(Nc3ccc4c(c3)OCCO4)cc2n1Cc1ccccc1` [Compound 528, 1-benzyl-N6-(2,3-dihydro-1,4-benzodioxin-6-yl)-N2-methyl-imidazo[4,5-c]pyridine-2,6-diamine] and `CNc1nc2cnc(Nc3ccc4c(c3)OCO4)cc2n1Cc1ccccc1` [Compound 534, N6-(1,3-benzodioxol-5-yl)-1-benzyl-N2-methyl-imidazo[4,5-c]pyridine-2,6-diamine] fall in the same range of Emax: 50 to 100% for the first, 50 to 100% for the second.

Compared with `CNc1nc2cnc(-c3ccccc3Oc3ccccc3)cc2n1Cc1ccccc1` [Compound 529, 1-benzyl-N-methyl-6-(2-phenoxyphenyl)imidazo[4,5-c]pyridin-2-amine], `CNc1nc2cnc(-c3cccc(Cl)c3)cc2n1Cc1ccccc1` [Compound 532, 1-benzyl-6-(3-chlorophenyl)-N-methyl-imidazo[4,5-c]pyridin-2-amine] is higher in Emax: 30 to 50% for the first, 50 to 100% for the second.

Compared with `CNc1nc2cnc(Nc3cccc(C)c3)cc2n1Cc1ccccc1` [Compound 530, 1-benzyl-N2-methyl-N6-(m-tolyl)imidazo[4,5-c]pyridine-2,6-diamine], `CNc1nc2cnc(Nc3cccc(O)c3)cc2n1Cc1ccccc1` [Compound 535, 3-[[1-benzyl-2-(methylamino)imidazo[4,5-c]pyridin-6-yl]amino]phenol] is higher in Emax: 30 to 50% for the first, 50 to 100% for the second.

First: CNc1nc2cnc(Nc3ccc(OC)cc3)cc2n1Cc1ccccc1 [Compound 531, 1-benzyl-N6-(4-methoxyphenyl)-N2-methyl-imidazo[4,5-c]pyridine-2,6-diamine]
Second: CNc1nc2cnc(Nc3ccc(OC)c(O)c3)cc2n1Cc1ccccc1 [Compound 536, 5-[[1-benzyl-2-(methylamino)imidazo[4,5-c]pyridin-6-yl]amino]-2-methoxy-phenol]
The Emax of the first is lower: 30 to 50% for the first, 50 to 100% for the second.

`CNc1nc2cnc(-c3cccc(O)c3)cc2n1Cc1ccccc1` [Compound 533, 3-[1-benzyl-2-(methylamino)imidazo[4,5-c]pyridin-6-yl]phenol] and `CNc1nc2cnc(-c3cccnc3)cc2n1Cc1cccnc1` [Compound 563, N-methyl-6-(3-pyridyl)-1-(3-pyridylmethyl)imidazo[4,5-c]pyridin-2-amine] fall in the same range of Emax: 50 to 100% for the first, 50 to 100% for the second.

Compared with `CNc1nc2cnc(Nc3ccc(C(=O)N(C)C)cc3)cc2n1Cc1ccccc1` [Compound 537, 4-[[1-benzyl-2-(methylamino)imidazo[4,5-c]pyridin-6-yl]amino]-N,N-dimethyl-benzamide], `CNc1nc2cnc(Nc3ccccc3)cc2n1Cc1cccnc1` [Compound 562, N2-methyl-N6-phenyl-1-(3-pyridylmethyl)imidazo[4,5-c]pyridine-2,6-diamine] is lower in Emax: 50 to 100% for the first, 30 to 50% for the second.

`CNc1nc2cnc(Nc3cc(OC)c(OC)c(OC)c3)cc2n1-c1cccc(C(F)(F)F)c1` [Compound 539, N2-methyl-1-[3-(trifluoromethyl)phenyl]-N6-(3,4,5-trimethoxyphenyl)imidazo[4,5-c]pyridine-2,6-diamine] and `CNc1nc2cnc(Nc3ccc(OC)c(OC)c3)cc2n1-c1cccc(C(F)(F)F)c1` [Compound 545, N6-(3,4-dimethoxyphenyl)-N2-methyl-1-[3-(trifluoromethyl)phenyl]imidazo[4,5-c]pyridine-2,6-diamine] fall in the same range of Emax: 30 to 50% for the first, 30 to 50% for the second.

First: CNc1nc2cnc(Nc3ccc(NC(C)=O)cc3)cc2n1-c1cccc(C(F)(F)F)c1 [Compound 540, N-[4-[[2-(methylamino)-1-[3-(trifluoromethyl)phenyl]imidazo[4,5-c]pyridin-6-yl]amino]phenyl]acetamide]
Second: CNc1nc2cnc(Nc3ccc(O)cc3)cc2n1-c1cccc(C(F)(F)F)c1 [Compound 541, 4-[[2-(methylamino)-1-[3-(trifluoromethyl)phenyl]imidazo[4,5-c]pyridin-6-yl]amino]phenol]
The Emax of the first is lower: 30 to 50% for the first, 50 to 100% for the second.

`CNc1nc2cnc(Nc3ccc(C(N)=O)cc3)cc2n1-c1cccc(C(F)(F)F)c1` [Compound 542, 4-[[2-(methylamino)-1-[3-(trifluoromethyl)phenyl]imidazo[4,5-c]pyridin-6-yl]amino]benzamide] and `CNc1nc2cnc(Nc3ccc(OC)cc3)cc2n1-c1cccc(C(F)(F)F)c1` [Compound 547, N6-(4-methoxyphenyl)-N2-methyl-1-[3-(trifluoromethyl)phenyl]imidazo[4,5-c]pyridine-2,6-diamine] fall in the same range of Emax: 30 to 50% for the first, 30 to 50% for the second.

First: CNc1nc2cnc(Nc3ccc(OC)cc3OC)cc2n1-c1cccc(C(F)(F)F)c1 [Compound 543, N6-(2,4-dimethoxyphenyl)-N2-methyl-1-[3-(trifluoromethyl)phenyl]imidazo[4,5-c]pyridine-2,6-diamine]
Second: CNc1nc2cnc(Nc3ccc(OC)c(O)c3)cc2n1-c1cccc(C(F)(F)F)c1 [Compound 551, 2-methoxy-5-[[2-(methylamino)-1-[3-(trifluoromethyl)phenyl]imidazo[4,5-c]pyridin-6-yl]amino]phenol]
The Emax of the first is lower: 30 to 50% for the first, 50 to 100% for the second.

First: CNc1nc2cnc(Nc3ccc4c(c3)OCCO4)cc2n1-c1cccc(C(F)(F)F)c1 [Compound 544, N6-(2,3-dihydro-1,4-benzodioxin-6-yl)-N2-methyl-1-[3-(trifluoromethyl)phenyl]imidazo[4,5-c]pyridine-2,6-diamine]
Second: CNc1nc2cnc(Nc3ccc4c(c3)OCO4)cc2n1-c1cccc(C(F)(F)F)c1 [Compound 549, N6-(1,3-benzodioxol-5-yl)-N2-methyl-1-[3-(trifluoromethyl)phenyl]imidazo[4,5-c]pyridine-2,6-diamine]
The Emax of the first is higher: 50 to 100% for the first, 30 to 50% for the second.

`CNc1nc2cnc(Nc3ccc(OC)nc3)cc2n1-c1cccc(C(F)(F)F)c1` [Compound 546, N6-(6-methoxy-3-pyridyl)-N2-methyl-1-[3-(trifluoromethyl)phenyl]imidazo[4,5-c]pyridine-2,6-diamine] and `CNc1nc2cnc(Nc3cccc(O)c3)cc2n1-c1cccc(C(F)(F)F)c1` [Compound 550, 3-[[2-(methylamino)-1-[3-(trifluoromethyl)phenyl]imidazo[4,5-c]pyridin-6-yl]amino]phenol] fall in the same range of Emax: 30 to 50% for the first, 30 to 50% for the second.

First: CNc1nc2cnc(Nc3ccccn3)cc2n1-c1cccc(C(F)(F)F)c1 [Compound 548, N2-methyl-N6-(2-pyridyl)-1-[3-(trifluoromethyl)phenyl]imidazo[4,5-c]pyridine-2,6-diamine]
Second: CNc1nc2cnc(Nc3cccc(C)c3)cc2n1Cc1cccnc1 [Compound 564, N2-methyl-N6-(m-tolyl)-1-(3-pyridylmethyl)imidazo[4,5-c]pyridine-2,6-diamine]
The Emax of the first is lower: 30 to 50% for the first, 50 to 100% for the second.

`CNc1nc2cnc(Nc3cccc(OC)c3)cc2n1CCN1CCOCC1` [Compound 552, N6-(3-methoxyphenyl)-N2-methyl-1-(2-morpholinoethyl)imidazo[4,5-c]pyridine-2,6-diamine] and `CNc1nc2cnc(Nc3cccc(C)c3)cc2n1CCN1CCOCC1` [Compound 556, N2-methyl-1-(2-morpholinoethyl)-N6-(m-tolyl)imidazo[4,5-c]pyridine-2,6-diamine] fall in the same range of Emax: 30 to 50% for the first, 30 to 50% for the second.

`CNc1nc2cnc(Nc3ccc(OC)cc3OC)cc2n1CCN1CCOCC1` [Compound 553, N6-(2,4-dimethoxyphenyl)-N2-methyl-1-(2-morpholinoethyl)imidazo[4,5-c]pyridine-2,6-diamine] and `CNc1nc2cnc(Nc3ccc(OC)c(OC)c3)cc2n1CCN1CCOCC1` [Compound 555, N6-(3,4-dimethoxyphenyl)-N2-methyl-1-(2-morpholinoethyl)imidazo[4,5-c]pyridine-2,6-diamine] fall in the same range of Emax: 30 to 50% for the first, 30 to 50% for the second.

`CNc1nc2cnc(Nc3ccc4c(c3)OCCO4)cc2n1CCN1CCOCC1` [Compound 554, N6-(2,3-dihydro-1,4-benzodioxin-6-yl)-N2-methyl-1-(2-morpholinoethyl)imidazo[4,5-c]pyridine-2,6-diamine] and `CNc1nc2cnc(Nc3cccc(C(C)=O)c3)cc2n1CCN1CCOCC1` [Compound 558, 1-[3-[[2-(methylamino)-1-(2-morpholinoethyl)imidazo[4,5-c]pyridin-6-yl]amino]phenyl]ethanone] fall in the same range of Emax: 50 to 100% for the first, 50 to 100% for the second.

`CNc1nc2cnc(Nc3ccc(OC)cc3)cc2n1CCN1CCOCC1` [Compound 557, N6-(4-methoxyphenyl)-N2-methyl-1-(2-morpholinoethyl)imidazo[4,5-c]pyridine-2,6-diamine] and `CNc1nc2cnc(Nc3cccc(OC)c3)cc2n1Cc1cccnc1` [Compound 560, N6-(3-methoxyphenyl)-N2-methyl-1-(3-pyridylmethyl)imidazo[4,5-c]pyridine-2,6-diamine] fall in the same range of Emax: 50 to 100% for the first, 50 to 100% for the second.

`CNc1nc2cnc(Nc3cc(OC)c(OC)c(OC)c3)cc2n1Cc1cccnc1` [Compound 559, N2-methyl-1-(3-pyridylmethyl)-N6-(3,4,5-trimethoxyphenyl)imidazo[4,5-c]pyridine-2,6-diamine] and `CNc1nc2cnc(Nc3cc(OC)c(OC)c(OC)c3)cc2n1CC1CC1` [Compound 567, 1-(cyclopropylmethyl)-N2-methyl-N6-(3,4,5-trimethoxyphenyl)imidazo[4,5-c]pyridine-2,6-diamine] fall in the same range of Emax: 50 to 100% for the first, 50 to 100% for the second.

First: CNc1nc2cnc(Nc3ccc4c(c3)OCCO4)cc2n1Cc1cccnc1 [Compound 561, N6-(2,3-dihydro-1,4-benzodioxin-6-yl)-N2-methyl-1-(3-pyridylmethyl)imidazo[4,5-c]pyridine-2,6-diamine]
Second: CNc1nc2cnc(Nc3ccc(F)cc3)cc2n1Cc1cccnc1 [Compound 565, N6-(4-fluorophenyl)-N2-methyl-1-(3-pyridylmethyl)imidazo[4,5-c]pyridine-2,6-diamine]
The Emax of the first is higher: > 100% for the first, 50 to 100% for the second.

Molecule `CNc1nc2cnc(-c3cccs3)cc2n1Cc1cccnc1` [Compound 566, N-methyl-1-(3-pyridylmethyl)-6-(2-thienyl)imidazo[4,5-c]pyridin-2-amine] has an Emax of 30 to 50%.
